# Data published in ChEMBL document CHEMBL6182868, “Structural simplification of quaternary benzophenanthridine alkaloids generating a candidate for the treatment of non-small cell lung cancer” (Eur J Med Chem, 2025).
# Active and inactive are the calls of the source. No cut-off for these calls is given here.
# How the values were obtained:
# [1] = Inhibition of TrxR (unknown origin) incubated for 2 hrs in presence of NADPH by DTNB assay; set-up: species or system Homo sapiens
# [2] = system: HeLa; test: Cytotoxicity against human HeLa cells incubated for 24 to 48 hrs by MTT assay; format: functional, cell-based
# [3] = system: HepG2; test: Cytotoxicity against human HepG2 cells incubated for 24 to 48 hrs by MTT assay; format: functional, cell-based
# [4] = system: A549; test: Cytotoxicity against human A549 cells incubated for 24 to 48 hrs by MTT assay; format: functional, cell-based
# [5] = species: Homo sapiens; test: Inhibition of TrxR U498C mutant (unknown origin) incubated for 2 hrs in presence of NADPH by DTNB assay
# [6] = GSH reactivity in TE buffer assessed as remaining concentration of compound incubated 1 to 4 hrs at 37 degreeC by HPLC analysis; format: physicochemical; conditions: TE buffer with GSH, time 1-4 hrs, read-out: Stability
# [7] = Cys reactivity in TE buffer assessed as remaining concentration of compound incubated 1 to 4 hrs at 37 degreeC by HPLC analysis; format: physicochemical; conditions: TE buffer with cysteine, time 1-4 hrs, read-out: Activity
# [8] = system: A549; test: Induction of ROS accumulation in human A549 cells assessed as increase in fluorescence intensity incubated for 6 hrs by DCFH-DA/DHE staining based analysis; format: functional, cell-based; conditions: dose 1-5 µM
# [9] = system: A549; test: Induction of oxidative stress in human A549 cells assessed as increase in GSSG levels at 1 to 5 uM incubated for 24 hrs by microplate reader analysis; format: functional, cell-based; conditions: dose 1-5 µM
# [10] = system: A549; test: Induction of oxidative stress in human A549 cells assessed as decrease in GSH/GSSG ratio at 1 to 5 uM incubated for 24 hrs by microplate reader analysis; format: functional, cell-based; conditions: dose 1-5 µM
# [11] = system: A549; test: Induction of oxidative stress in human A549 cells assessed as decrease in intracellular total thiol levels at 5 uM incubated for 24 hrs by DTNB titration based microplate reader analysis relative to control; format: functional; set-up: scale not given: the % may be the effect or the level left
# [12] = system: A549; test: Induction of apoptosis in human A549 cells assessed as increase in blue fluorescence at 1 to 5 uM incubated for 24 hrs by Hoechst 33342 staining based fluorescence microscopic analysis; format: functional, cell-based; conditions: dose 1-5 µM
# [13] = system: A549; test: Induction of apoptosis in human A549 cells assessed as increase in caspase 3 activation incubated for 24 hrs by colorimetric assay; format: functional, cell-based; conditions: dose 1-5 µM
# [14] = system: A549; test: Induction of apoptosis in human A549 cells assessed as apoptotic cell count incubated for 6 hrs by annexin V-FITC and PI staining based flow cytometric analysis; format: functional; conditions: dose 1-5 µM
# [15] = system: A549; test: Induction of apoptosis in human A549 cells assessed as decrease in Bcl-2 protein expression at 2 to 5 uM incubated for 24 hrs by Western blot analysis; format: functional, cell-based; conditions: dose 2-5 µM
# [16] = system: A549; test: Induction of apoptosis in human A549 cells assessed as increase in Bax protein expression at 2 to 5 uM incubated for 24 hrs by Western blot analysis; format: functional, cell-based; conditions: dose 2-5 µM
# [17] = Inhibition of TrxR in human A549 cells incubated for 24 hrs by endpoint insulin reduction assay; format: cell-based
# [18] = system: A549; test: Inhibition of TrxR in human A549 cells assessed as decrease in green fluorescence intensity incubated for 24 hrs by TRFS-green staining based fluorescent microscopic analysis; format: cell-based; conditions: dose 1-5 µM
# [19] = system: A549; test: Induction of apoptosis in human A549 cells assessed as conversion of caspase 3 to cleaved caspase 3 at 2 to 5 uM incubated for 24 hrs by Western blot analysis; format: functional, cell-based; conditions: dose 2-5 µM
# [20] = system: A549; test: Induction of oxidative stress in human A549 cells assessed as activation of ERK pathway by measuring change in protein level incubated for 24 hrs; format: functional, cell-based
# [21] = system: A549; test: Inhibition of colony formation in human A549 cells assessed as decrease in number of colonies incubated for 1 day in 5% CO2 at 37 degC followed by replacement with fresh culture medium for every 2 days and measured after 10 days by crystal violet staining based analysis; format: functional, cell-based; conditions: dose 0.25-0.5 µM
# [22] = Cytotoxicity against human LO2 cells assessed as cell viability at 1 to 20 uM incubated for 24 hrs by MTT assay; format: toxicity, cell-based, L02
# [23] = system: A549; test: Antitumor activity against human A549 cells xenografted in male BALB/c nude mouse assessed as tumor growth inhibition at 3 to 6 mg/kg, ip administrated for every 3 days and measured after 21 days relative to control; format: functional; conditions: dose 3-6 mg/kg, time 21 day
# [24] = system: A549; test: Antitumor activity against ip dosed human A549 cells xenografted in male BALB/c nude mouse assessed as tumor size administered and measured every 3 days for 21 days; format: functional, organism-based; conditions: dose 3-6 mg/kg, time 21.0 day
# [25] = system: A549; test: Antitumor activity against ip dosed human A549 cells xenografted in male BALB/c nude mouse assessed as tumor weight administered and measured every 3 days for 21 days; format: functional, organism-based; conditions: dose 3-6 mg/kg, time 21.0 day
# [26] = Toxicity in male BALB/c nude mouse xenografted with human A549 cells assessed as effect on body weight 3 to 6 mg/kg, ip administered and measured every 3 days for 21 days; format: organism-based; conditions: in vivo, 504 h, dose 3-6 mg/kg, time 21 day
# [27] = Half life in Sprague-Dawley rat at 10 mg/kg, po measured up to 24 hrs by LC-MS/MS analysis; format: ADME, organism-based; conditions: in vivo
# [28] = Tmax in Sprague-Dawley rat at 10 mg/kg, po measured up to 24 hrs by LC-MS/MS analysis; format: ADME, organism-based; conditions: in vivo
# [29] = AUC (0 to 24 hrs) in Sprague-Dawley rat at 10 mg/kg, po measured up to 24 hrs by LC-MS/MS analysis; format: ADME, organism-based; conditions: in vivo
# [30] = Toxicity in male BALB/c nude mouse xenografted with human A549 cells assessed as effect on heart at 3 to 6 mg/kg, ip administered for 21 days; format: organism-based; conditions: in vivo, 504 h, dose 3-6 mg/kg, time 21 day
# [31] = Toxicity in male BALB/c nude mouse xenografted with human A549 cells assessed as effect on liver at 3 to 6 mg/kg, ip administered for 21 days; format: organism-based; conditions: in vivo, 504 h, dose 3-6 mg/kg, time 21 day
# [32] = Toxicity in male BALB/c nude mouse xenografted with human A549 cells assessed as effect on lung at 3 to 6 mg/kg, ip administered for 21 days; format: organism-based; conditions: in vivo, 504 h, dose 3-6 mg/kg, time 21 day
# [33] = Toxicity in male BALB/c nude mouse xenografted with human A549 cells assessed as effect on kidney at 3 to 6 mg/kg, ip administered for 21 days; format: organism-based; conditions: in vivo, 504 h, dose 3-6 mg/kg, time 21 day
# [34] = Toxicity in male BALB/c nude mouse xenografted with human A549 cells assessed as effect on spleen at 3 to 6 mg/kg, ip administered for 21 days; format: organism-based; conditions: in vivo, 504 h, dose 3-6 mg/kg, time 21 day
# [35] = system: A549; test: Cytotoxicity against human A549 cells assessed as cell viability at 1 to 20 uM cotreated with BSO incubated for 24 hrs by MTT assay; format: functional, cell-based; conditions: dose 1-20 µM
# [36] = system: A549; test: Cytotoxicity against human A549 cells assessed as cell viability at 1 to 20 uM cotreated with NAC incubated for 24 hrs by MTT assay; format: functional, cell-based; conditions: dose 1-20 µM
# [37] = system: HeLa; test: Cytotoxicity against human HeLa cells harboring shNT-negative control assessed as cell viability at 1 to 5 uM incubated for 48 hrs by MTT assay; format: functional, cell-based; conditions: dose 1-5 µM
# [38] = system: HeLa; test: Cytotoxicity against human HeLa cells harboring shTrxR1 assessed as cell viability at 1 to 5 uM incubated for 48 hrs by MTT assay; format: functional, cell-based; conditions: dose 1-5 µM
# [39] = system: A549; test: Induction of apoptosis in human A549 cells assessed as small and condensed nuclei at 1 to 5 uM incubated for 24 hrs by Hoechst 33342 staining based fluorescence microscopic analysis; format: functional, cell-based; conditions: dose 1-5 µM
# [40] = species: Homo sapiens; test: Inhibition of TrxR (unknown origin) assessed as remaining activity at 50 uM incubated for 2 hrs in presence of NADPH by DTNB assay relative to control
compound,measurement,setting,value
COc1cc(OC)c2c(c1)ncc1ccccc12,IC50,[1],> 50 µM
same,IC50,[2],> 50 µM
same,IC50,[3],> 50 µM
same,IC50,[4],> 50 µM
C[n+]1cc2ccccc2c2cc(F)ccc21,IC50,[1],> 50 µM
same,IC50,[2],31.4 µM
same,IC50,[3],34.7 µM
same,IC50,[4],> 50 µM
Fc1ccc2ncc3ccccc3c2c1,IC50,[1],> 50 µM
same,IC50,[2],> 50 µM
same,IC50,[3],> 50 µM
same,IC50,[4],> 50 µM
COc1cc(OC)c2c3ccccc3c[n+](C)c2c1.[I-],IC50,[1],10.2 µM
same,IC50,[2],3.4 µM
same,IC50,[3],5 µM
same,IC50,[4],2.1 µM
same,inhibition,[5],Active; Minimal Inhibition Was Observed
same,remaining at 50 µM,[6],94%
same,remaining at 50 µM,[7],102%
same,Activity,[8],Dose-dependent-effect
same,Activity,[9],Active
same,Activity,[10],inactive
same,Activity,[11],~50%
same,Activity,[12],Active
same,Activity,[13],Dose-dependent-effect
same,Activity,[14],Dose-dependent-effect
same,Activity,[15],Dose-dependent-effect
same,Activity,[16],Dose-dependent-effect
same,IC50,[17],3.94 µM
same,inhibition,[18],Dose-dependent-effect
same,Activity,[19],Dose-dependent-effect
same,Activity,[20],Active
same,inhibition,[21],Dose-dependent-effect
same,IC50 at 24 h,[22],> 20 µM
same,TGI,[23],65.49%
same,Activity,[24],Dose-dependent-effect
same,Activity,[25],Dose-dependent-effect
same,Activity,[26],Non-toxic
same,half-life,[27],2.58 h
same,Tmax,[28],2 h
same,AUC,[29],1060 ng·h/mL
same,Activity,[30],Non-toxic
same,Activity,[31],Non-toxic
same,Activity,[32],Non-toxic
same,Activity,[33],Non-toxic
same,Activity,[34],Non-toxic
same,Activity,[35],Active
same,Activity,[36],inactive
same,Activity,[37],Active
same,Activity,[38],Active; Compound Exhibited Increased Sensitivity Compared To Hela-Shnt Cells (Negative Control)
same,Activity,[39],Active
COc1ccc2c(c1)c1ccccc1c[n+]2C,IC50,[1],> 50 µM
same,IC50,[2],19.5 µM
same,IC50,[3],19.5 µM
same,IC50,[4],17.6 µM
C[n+]1cc2ccccc2c2ccc3ccccc3c21,IC50,[2],5.2 µM
same,IC50,[3],5.4 µM
same,IC50,[4],7.3 µM
same,Activity,[40],64%
COc1ccc2c(c[n+](C)c3c4cc5c(cc4ccc23)OCO5)c1OC [CHELERYTHRINE CHLORIDE],IC50,[1],14.9 µM
same,IC50,[2],9.6 µM
same,IC50,[3],8.3 µM
same,IC50,[4],8 µM
Cc1ccc2c(c1)c1ccccc1c[n+]2C,IC50,[1],> 50 µM
same,IC50,[2],12.3 µM
same,IC50,[3],15 µM
same,IC50,[4],18.5 µM
c1ccc2c(c1)cnc1c3ccccc3ccc21,IC50,[2],> 50 µM
same,IC50,[3],> 50 µM
same,IC50,[4],> 50 µM
same,Activity,[40],93%
